Measured values as given in PubChem BioAssay AID588653 (The Scripps Research Institute Molecular Screening Center, 2011).

These compounds were tested against Epidermal growth factor receptor (Homo sapiens) (UniProt P00533) (assay: p-EGFR level shift in colorectal carcinoma cells – HT29 cells, chemiluminescent western blot, powder samples, counter-screen for KLF5 inhibitor project, late-stage follow-up (AID 588653)). Settings: 24 h, at 10 µM.
Chain of Epidermal growth factor receptor (Homo sapiens) (P00533 whole entry, looked up): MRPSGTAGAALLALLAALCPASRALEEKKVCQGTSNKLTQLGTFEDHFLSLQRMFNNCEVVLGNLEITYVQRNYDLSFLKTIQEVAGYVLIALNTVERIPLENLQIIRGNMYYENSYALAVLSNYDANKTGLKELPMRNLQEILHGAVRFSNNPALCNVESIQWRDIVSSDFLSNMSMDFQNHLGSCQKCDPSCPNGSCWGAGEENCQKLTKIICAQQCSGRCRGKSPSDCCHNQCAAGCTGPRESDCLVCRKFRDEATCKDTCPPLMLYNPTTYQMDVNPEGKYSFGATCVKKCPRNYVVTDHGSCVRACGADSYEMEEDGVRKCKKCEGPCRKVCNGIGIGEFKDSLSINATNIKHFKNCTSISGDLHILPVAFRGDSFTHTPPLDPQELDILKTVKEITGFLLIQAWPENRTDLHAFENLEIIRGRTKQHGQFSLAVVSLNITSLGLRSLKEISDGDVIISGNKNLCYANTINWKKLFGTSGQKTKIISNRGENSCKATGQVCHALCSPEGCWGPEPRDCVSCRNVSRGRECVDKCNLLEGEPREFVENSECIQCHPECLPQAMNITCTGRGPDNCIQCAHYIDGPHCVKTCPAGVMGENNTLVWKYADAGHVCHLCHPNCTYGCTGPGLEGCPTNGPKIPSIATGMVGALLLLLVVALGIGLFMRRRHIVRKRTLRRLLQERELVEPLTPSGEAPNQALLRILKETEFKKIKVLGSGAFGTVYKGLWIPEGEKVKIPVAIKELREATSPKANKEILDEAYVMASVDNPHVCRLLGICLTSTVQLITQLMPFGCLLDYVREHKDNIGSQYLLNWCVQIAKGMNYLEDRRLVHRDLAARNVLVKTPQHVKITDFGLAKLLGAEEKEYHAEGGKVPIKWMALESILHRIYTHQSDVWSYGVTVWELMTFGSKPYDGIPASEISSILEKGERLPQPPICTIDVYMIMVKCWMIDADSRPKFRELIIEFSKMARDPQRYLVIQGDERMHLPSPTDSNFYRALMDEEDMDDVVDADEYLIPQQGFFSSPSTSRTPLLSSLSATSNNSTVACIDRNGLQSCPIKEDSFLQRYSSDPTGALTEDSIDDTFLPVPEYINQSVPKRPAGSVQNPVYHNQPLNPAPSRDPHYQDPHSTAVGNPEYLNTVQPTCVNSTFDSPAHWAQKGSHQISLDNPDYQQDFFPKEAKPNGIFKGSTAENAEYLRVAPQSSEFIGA

Row | SMILES | inhibition
1 | CN(C(=O)CNC(=O)/C=C/c1cccc(Cl)c1)C1CCS(=O)(=O)CC1 | -116%
2 | CN(C(=O)CNC(=O)/C=C/c1cccc(Cl)c1)C1CCS(=O)(=O)C1 (stereo not drawn) | -130%
3 | CN(C(=O)COC(=O)/C=C/c1cccc([N+](=O)[O-])c1)C1CCS(=O)(=O)C1 (stereo not drawn) | -47.5%
